Tested on: PC9 xenograft tumours
Experiment: PC9 xenograft antitumour efficacy and regrowth
Assay type: in vivo, female SCID mice
Protocol: PC9 xenograft tumours were established by subcutaneous implantation of 5×10^6 cells per animal, in 100 μl of cell suspension including 50% matrigel, into the dorsal left flank of female SCID mice. All mice were older than 6 weeks at the time of cell implant. Tumor growth was monitored twice weekly by bilateral calliper measurements and tumour volume calculated using elliptical formula (pi/6×width×width×length).
Mice were randomized into vehicle or treatment groups with approximate mean start size of 0.2 cm3. Randomization for animal studies was based on initial tumour volumes to ensure equal distribution across groups. Mice were dosed daily by oral gavage with vehicle or 25 mg/kg osimertinib or once weekly by intravenous with 25 mg/kg AZD2811 or with the combination of osimertinib and AZD2811. Note that all treatments were stopped on day 28. However, tumour growth was followed for approximately 200 additional days.

SMILES: C=CC(=O)Nc1cc(Nc2nccc(-c3cn(C)c4ccccc34)n2)c(OC)cc1N(C)CCN(C)C [osimertinib, N-(2-{2-dimethylaminoethyl-methylamino}-4-methoxy-5-{[4-(1-methylindol-3-yl)pyrimidin-2-yl]amino}phenyl) prop-2-enamide]
- tumour shrinkage during 4-week treatment (monotherapy, 25 mg/kg, osimertinib daily oral, AZD2811 once weekly intravenous): complete shrinkage
- time at which tumour regrowth was observed (osimertinib 25 mg/kg daily oral gavage for 28 days, then treatment stopped): around 80 days
